Legend:
Pim 3 = Pim 3 (Homo sapiens, UniProt Q86V86); test: Pim 3 AlphaScreen assay (high ATP)
Protocol: (§1) The activity of Pim 1, Pim 2, & Pim 3 is measured using a homogeneous bead based system quantifying the amount of phosphorylated peptide substrate resulting from kinase-catalyzed phosphoryl transfer to a peptide substrate. Compounds to be tested are dissolved in 100% DMSO and directly distributed to a white 384-well plate at 0.25 μl per well. […] This is followed by the addition of 5 μl/well of Pim 1, Pim 2 or Pim 3 kinase in assay buffer (concentrations described below). Final assay concentrations (described below) are in 2.5% DMSO. The reactions are performed for ˜2 hours, then stopped by the addition of 10 μl of 0.75 μg/ml anti-phospho Ser/Thr antibody (Cell Signaling), 10 μg/ml Protein A AlphaScreen beads (Perkin Elmer), and 10 μg/ml streptavidin coated AlphaScreen beads in stop/detection buffer (50 mM EDTA, 95 mM Tris, pH=7.5, 0.01% Tween-20). The stopped reactions are incubated overnight in the dark. The phosphorylated peptide is detected via an oxygen anion initiated chemiluminescence/fluorescence cascade using the Envision plate reader (Perkin Elmer).

Pim 1 = Pim 1 (Homo sapiens, UniProt P11309); test: Pim 1 AlphaScreen assay (high ATP)
Protocol: as §1

Pim 2 = Pim 2 (Homo sapiens, UniProt Q9P1W9); test: Pim 2 AlphaScreen assay (high ATP)
[1] = system: KMS11 (human myeloma cell line); test: Cell Proliferation Assay (CellTiter-Glo, 3 days); type: cell-based; conditions: KMS-11, 72 h, KMS11-luc cells
Outline: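 EC50 from CellTiter-Glo luminescence after 3-day, 37° C compound treatment of KMS11 cells seeded at 2000 per well in IMDM plus 10% FBS.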

Chain of Pim 1 (P11309 whole entry): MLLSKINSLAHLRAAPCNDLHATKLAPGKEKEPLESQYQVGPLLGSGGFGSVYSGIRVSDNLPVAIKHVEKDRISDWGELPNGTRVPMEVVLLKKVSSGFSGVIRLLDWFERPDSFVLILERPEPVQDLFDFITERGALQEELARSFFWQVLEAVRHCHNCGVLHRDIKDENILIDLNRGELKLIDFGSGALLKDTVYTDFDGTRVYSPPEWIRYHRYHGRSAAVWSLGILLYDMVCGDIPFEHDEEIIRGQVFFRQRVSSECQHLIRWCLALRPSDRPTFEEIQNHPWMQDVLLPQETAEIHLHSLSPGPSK
Chain of Pim 2 (Q9P1W9 whole entry): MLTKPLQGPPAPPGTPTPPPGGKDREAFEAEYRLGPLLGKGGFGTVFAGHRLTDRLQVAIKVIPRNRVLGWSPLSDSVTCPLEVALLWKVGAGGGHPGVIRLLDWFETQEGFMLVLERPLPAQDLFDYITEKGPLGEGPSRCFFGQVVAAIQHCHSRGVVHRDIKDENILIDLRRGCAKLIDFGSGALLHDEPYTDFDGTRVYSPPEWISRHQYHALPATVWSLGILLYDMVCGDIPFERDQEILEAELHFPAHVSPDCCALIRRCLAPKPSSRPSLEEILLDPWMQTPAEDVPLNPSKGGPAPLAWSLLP

SMILES | IC50 (Pim 3) [nM] | IC50 (Pim 1) [nM] | IC50 (Pim 2) [nM] | EC50 [1] [nM]
C[C@@H]1C[C@H](N)C[C@H](c2ccncc2NC(=O)c2ccc(F)c(-c3c(F)cc(OC4CCOC4)cc3F)n2)C1 (stereo in doubt) [Example 71, N-(4-((1R,3S,5S)-3-amino-5-methylcyclohexyl)pyridin-3-yl)-6-(2,6-difluoro-4-((R)-tetrahydrofuran-3-yloxy)phenyl)-5-fluoropicolinamide] | 0.97 | 0.02 | 2.21 | 48
C[C@@H]1C[C@H](N)C[C@H](c2ccncc2NC(=O)c2nc(-c3c(F)cc(C4(O)COC4)cc3F)c(F)cc2N)C1 [Example 221, 3-amino-N-(4-((1R,3S,5S)-3-amino-5-methylcyclohexyl)pyridin-3-yl)-6-(2,6-difluoro-4-(3-hydroxyoxetan-3-yl)phenyl)-5-fluoropicolinamide] | 0.13 | 0.01 | 0.73 | 4
C[C@@H]1C[C@H](N)C[C@H](c2ccncc2NC(=O)c2ccc(F)c(-c3c(F)cc([C@@H]4CCOC4)cc3F)n2)C1 [Example 206, N-(4-((1R,3S,5S)-3-amino-5-methylcyclohexyl)pyridin-3-yl)-6-(2,6-difluoro-4-((S)-tetrahydrofuran-3-yl)phenyl)-5-fluoropicolinamide] | 0.8 | 0.01 | 1.66 | 59
CCOc1cc(F)c(-c2nc(C(=O)Nc3cnccc3N3C[C@@H](N)[C@H](O)[C@@H](C)C3)ccc2F)c(F)c1 [Example 20, N-(4-((3R,4R,5S)-3-amino-4-hydroxy-5-methylpiperidin-1-yl)pyridin-3-yl)-6-(4-ethoxy-2,6-difluorophenyl)-5-fluoropicolinamide] | 0.29 | 0.02 | 0.97 | 7
C[C@H]1CN(c2ccncc2NC(=O)c2ccc(F)c(-c3c(F)cc(OCCO)cc3F)n2)C[C@@H](N)[C@@H]1O [Example 21, N-(4-((3R,4R,5S)-3-amino-4-hydroxy-5-methylpiperidin-1-yl)pyridin-3-yl)-6-(2,6-difluoro-4-(2-hydroxyethoxy)phenyl)-5-fluoropicolinamide] | 0.34 | 0.02 | 1.19 | 13
CC(C)Oc1cc(F)c(-c2nc(C(=O)Nc3cnccc3[C@H]3C[C@@H](N)[C@H](O)[C@@H](C)C3)c(N)cc2F)c(F)c1 [Example 97] | 0.37 | 0.02 | 1.55 | 69
C[C@@H]1C[C@H](N)C[C@H](c2ccncc2NC(=O)c2ccc(F)c(-c3c(F)cc(C4COC4)cc3F)n2)C1 [Example 68, N-(4-((1R,3S,5S)-3-amino-5-methylcyclohexyl)pyridin-3-yl)-6-(2,6-difluoro-4-(oxetan-3-yl)phenyl)-5-fluoropicolinamide] | 1.13 | 0.01 | 1.6 | 25
C[C@@H]1C[C@H](N)C[C@H](c2ccncc2NC(=O)c2ccc(F)c(-c3c(F)cc4c(c3F)OCC[C@@]4(C)O)n2)C1 [Example 240, N-(4-((1R,3S,5S)-3-amino-5-methylcyclohexyl)pyridin-3-yl)-6-((R)-6,8-difluoro-4-hydroxy-4-methylchroman-7-yl)-5-fluoropicolinamide] | 0.43 | 0.02 | 1.67 | 23
C[C@H]1CN(c2ccncc2NC(=O)c2nc(-c3c(F)cc(C4COC4)cc3F)c(F)cc2N)C[C@@H](N)[C@@H]1O [Example 107, 3-amino-N-(4-((3R,4R,5S)-3-amino-4-hydroxy-5-methylpiperidin-1-yl)pyridin-3-yl)-6-(2,6-difluoro-4-(oxetan-3-yl)phenyl)-5-fluoropicolinamide] | 0.31 | 0.02 | 1.03 | 157
COC1(c2cc(F)c(-c3nc(C(=O)Nc4cnccc4[C@@H]4C[C@H](C)C[C@H](N)C4)c(N)cc3F)c(F)c2)COC1 [Example 90, 3-amino-N-(4-((1R,3S,5S)-3-amino-5-methylcyclohexyl)pyridin-3-yl)-6-(2,6-difluoro-4-(3-methoxyoxetan-3-yl)phenyl)-5-fluoropicolinamide] | 0.71 | 0.01 | 0.72 | 19
C[C@@H]1C[C@H](N)C[C@H](c2ccncc2NC(=O)c2ccc(F)c(-c3c(F)cc(-c4ccnnc4)cc3F)n2)C1 [Example 142, N-(4-((1R,3S,5S)-3-amino-5-methylcyclohexyl)pyridin-3-yl)-6-(2,6-difluoro-4-(pyridazin-4-yl)phenyl)-5-fluoropicolinamide] | 17.8 | 0.12 | 28.4 | 1640
C[C@@H]1C[C@H](N)C[C@H](c2ccncc2NC(=O)c2ccc(F)c(-c3c(F)cc4c(c3F)OCC[C@]4(C)O)n2)C1 [Example 239, N-(4-((1R,3S,5S)-3-amino-5-methylcyclohexyl)pyridin-3-yl)-6-((S)-6,8-difluoro-4-hydroxy-4-methylchroman-7-yl)-5-fluoropicolinamide] | 1.1 | 0.01 | 1.72 | 31
C[C@@H]1C[C@H](N)C[C@H](c2ccncc2NC(=O)c2ccc(F)c(-c3c(F)cc(C4(F)COC4)cc3F)n2)C1 [Example 135, N-(4-((1R,3S,5S)-3-amino-5-methylcyclohexyl)pyridin-3-yl)-6-(2,6-difluoro-4-(3-fluorooxetan-3-yl)phenyl)-5-fluoropicolinamide] | 4.45 | 0.05 | 4.54 | 583
COCCOc1ccc(F)c(-c2nc(C(=O)Nc3cnccc3N3C[C@@H](N)[C@H](O)[C@@H](C)C3)ccc2F)c1F [Example 17, N-(4-((3R,4R,5S)-3-amino-4-hydroxy-5-methylpiperidin-1-yl)pyridin-3-yl)-6-(2,6-difluoro-3-(2-methoxyethoxy)phenyl)-5-fluoropicolinamide] | 0.35 | 0.03 | 1.92 | 13
C[C@H]1C[C@@H](c2ccncc2NC(=O)c2ccc(F)c(-c3c(F)cc4c(c3F)OCC4)n2)C[C@@H](N)[C@@H]1O [Example 180, N-(4-((1R,3R,4R,5S)-3-amino-4-hydroxy-5-methylcyclohexyl)pyridin-3-yl)-6-(5,7-difluoro-2,3-dihydrobenzofuran-6-yl)-5-fluoropicolinamide] | 0.58 | 0.02 | 0.92 | 145
COCCOc1cc(F)c(-c2nc(C(=O)Nc3cnccc3[C@H]3C[C@@H](N)C[C@@H](C(C)C)C3)ccc2F)c(F)c1 [Example 175, N-(4-((1R,3S,5S)-3-amino-5-isopropylcyclohexyl)pyridin-3-yl)-6-(2,6-difluoro-4-(2-methoxyethoxy)phenyl)-5-fluoropicolinamide] | 0.46 | 0.01 | 0.98 | 176
COCCCOc1cc(F)c(-c2nc(C(=O)Nc3cnccc3[C@H]3C[C@@H](N)[C@H](O)[C@@H](C)C3)ccc2F)c(F)c1 [Example 184, N-(4-((1R,3R,4R,5S)-3-amino-4-hydroxy-5-methylcyclohexyl)pyridin-3-yl)-6-(2,6-difluoro-4-(3-methoxypropoxy)phenyl)-5-fluoropicolinamide] | 0.93 | 0.03 | 3.54 | 161
